Key:
[1] = test system: SW620 colorectal cancer cell line; assay: Flow cytometry of EpCAM positive cells and cancer stem cell (CD44+CD133-) subpopulation after incubation with cytokines; assay type: cell-based, human; settings: for % Gated, R4 (CD44FITC, CD133 PE) / % Total, R4 (CD44FITC, CD133 PE): population R4 & R14 & R2 & R1; for % Gated, R5 (CD44FITC, CD133 PE) / % Total, R5 (CD44FITC, CD133 PE): population R5 & R14 & R2 & R1; for % Gated, R6 (CD44FITC, CD133 PE) / % Total, R6 (CD44FITC, CD133 PE): population R6 & R14 & R2 & R1; for % Gated, R7 Cancer Stem Cell (CSC) (CD44+CD133-) / % Total, R7 Cancer Stem Cell (CSC) (CD44+CD133-): population R7 & R14 & R2 & R1; for % Gated, R8 (CD44FITC, EpCAMefluor710) / % Total, R8 (CD44FITC, EpCAMefluor710): population R8 & R14 & R2 & R1; for % Gated, R9 EpCAM positive Cells (CD44FITC, EpCAMefluor710) / % Total, R9 EpCAM positive Cells (CD44FITC, EpCAMefluor710): population R9 & R14 & R2 & R1; for % Gated, R10 EpCAM positive Cells (CD44FITC, EpCAMefluor710) / % Total, R10 EpCAM positive Cells (CD44FITC, EpCAMefluor710): population R10 & R14 & R2 & R1; for % Gated, R11 (CD44FITC, EpCAMefluor710) / % Total, R11 (CD44FITC, EpCAMefluor710): population R11 & R14 & R2 & R1; for putative stem cell population (CD44+/CD133-): SW620; for percentage of cancer stem cells: human cancer cell line, single agent at 1000 pg/ml
Procedure: This number returned to near baseline 21% at 48 hours. […] This change was transient, occurring within 24 hours and rapidly returning to baseline.
The data from the scatter plots of FIGS. 1A-1H, 2A-2H, and 3A-3H are reproduced below in Tables 1-3.
Based on the above data of potentiating the effectiveness of chemotherapy by exposing cancer cells to specific cytokines such as HGF and or Il-6 within a time limited fashion, the mechanism behind this ability to sensitize cancer cells may not simply be triggering cellular proliferation. Specific cytokine exposures can transiently cause a cancer cell population to differentiate away from a more stem cell enriched, mesenchymal phenotype towards a more differentiated, epithelial cell population more sensitive to the effects of anti-cancer therapies (see Tables 1-3).
In particular, exposure to a control population of SW620 colorectal cancer cell line to HGF at a concentration of 10 ng per ml for 24 hours caused the control putative stem cell population (CD44+/CD133−) to drop from 33% at baseline (see Table 1, R7 region, CD 44 positive/CD133 negative) to 1% (see Table 2, R7, region CD 44 positive/CD133 negative). This drop was transient, as exposure to the same cell line for 48 hours of HGF at 10 ng per ml transitioned the phenotypic distribution back towards a stem cell enriched phenotype with 23% putative stem cells (see Table 3, R7 region, CD 44 positive/CD133 negative).

[2] = test system: PANC1; assay: Cancer cell viability after 48 hours HGF only pretreatment followed by 72 hour combination treatment; assay type: cell-based, human; settings: 48 hours HGF exposure followed by 72 hour combination treatment; FIG. 7
Procedure: FIG. 7 depicts tables showing cancer cell viability after 48 hours of HGF only pretreatment, followed by 72 hour combination treatment. HI1=HGF 0.5 ng/ml; H12=HGF 1 ng/ml; HI3=HGF 5 ng/ml. A) PANC1 48 hour HGF exposure followed by 72 hour combination treatment (COMBO=30 paclitaxel, 250 μg/mL oseltamivir phosphate, and 2.5 mM aspirin). B) PANC1 48 hour HGF exposure followed by 72 hour combination treatment (COMBO=50 μM paclitaxel, 250 μg/mL oseltamivir phosphate, and 2.5 mM aspirin).
(§1) In the following experiments various concentrations of hepatocyte growth factor (HGF) and Interleukin 6 (IL-6), used singly and together, were used to sensitize cancer cell lines to cytotoxic chemotherapy. In these experiments a combination anti-cancer treatment of paclitaxel with aspirin and oseltamivir phosphate (OP) were used. Cell lines treated with the combination treatment (COMBO) alone were compared with those treated with the combination treatment after exposure to cytokines.
In FIG. 7, exposing human pancreatic cancer cell lines (PANC-1) cells to HGF for 48 hours at various concentrations sensitized cancer cells to subsequent combination treatment. […] P-value in FIG. 7 was calculated based on comparison between Combination Treatment vs. Pretreatment Followed by Combination Treatment.

[3] = test system: cancer cells; assay: Cancer cell viability after 72 hours HGF only pretreatment followed by 72 hour combination treatment; assay type: cell-based; settings: 72 hours HGF exposure followed by 72 hour combination treatment; FIG. 8
Procedure: FIG. 8 depicts a table showing cancer cell viability after 72 hours of HGF only pretreatment, followed by 72 hour combination treatment (COMBO=30 μM paclitaxel, 250 μs/mL oseltamivir phosphate, and 2.5 mM aspirin). HI1=HGF 0.5 ng/ml; HI2=HGF 1 ng/ml; HI3=HGF 5 ng/ml.
as §1
Thus, exposure to this particular cytokine, for longer than 48 hours can increase the likelihood that the cancer cell population is transitioning over to a more stem cell enriched phenotype, rendering the cells less sensitive to the effects of cytotoxic therapies. Other cytokines such as HGF, IL-6, PGE-2, MCP-1, MMP-9, TGF-beta, PDGF-BB, and PGF, the up-regulation of which is associated with stem cell enrichment should also be administered in this time limited manner to avoid a stem cell enriched phenotype that is more resistant to the chemotherapy treatment. […]

[4] = test system: SW 620 cell lines; assay: Cancer stem cells remaining after cytokine exposure and 24 hours exposure to CPT-11 (Irinotecan); assay type: cell-based, human; settings: FIG. 4
Procedure: FIG. 4 depicts a table showing percentage of Cancer Stem Cells remaining after exposure to various cytokines and 24 hours exposure to CPT-11 (Irinotecan). The present inventor then performed experiments to determine if exposure to HGF would improve the effectiveness of chemotherapy treatment, based on a prediction that this stimulus, by fostering differentiation of the stem cell subpopulation, would render these cells more susceptible to chemotherapy. […] Furthermore, exposure to HGF alone for 24 hours at a concentration of 10 ng per ml followed by treatment with CPT-11 in SW 620 cell lines was able to kill cancer stem cells effectively as well, given that there were no remaining cancer stem cells after this sensitization (FIG. 4 0% CD44+/CD133−).

[5] = after exposure to HGF, then chemotherapy (CPT-11)

Substance: HGF: Hepatocyte Growth Factor, cytokine
- % Gated, R4 (CD44FITC, CD133 PE) ([1]; 0 hour incubation): 48.6%
- % Total, R4 (CD44FITC, CD133 PE) ([1]; 0 hour incubation): 46.6%
- % Gated, R5 (CD44FITC, CD133 PE) ([1]; 0 hour incubation): 3.61%
- % Total, R5 (CD44FITC, CD133 PE) ([1]; 0 hour incubation): 3.45%
- % Gated, R6 (CD44FITC, CD133 PE) ([1]; 0 hour incubation): 14.2%
- % Total, R6 (CD44FITC, CD133 PE) ([1]; 0 hour incubation): 13.6%
- % Gated, R7 Cancer Stem Cell (CSC) (CD44+CD133-) ([1]; 0 hour incubation): 33.8%
- % Total, R7 Cancer Stem Cell (CSC) (CD44+CD133-) ([1]; 0 hour incubation): 32.3%
- % Gated, R8 (CD44FITC, EpCAMefluor710) ([1]; 0 hour incubation): 5.28%
- % Total, R8 (CD44FITC, EpCAMefluor710) ([1]; 0 hour incubation): 5.06%
- % Gated, R9 EpCAM positive Cells (CD44FITC, EpCAMefluor710) ([1]; 0 hour incubation): 53.1%
- % Total, R9 EpCAM positive Cells (CD44FITC, EpCAMefluor710) ([1]; 0 hour incubation): 50.9%
- % Gated, R10 EpCAM positive Cells (CD44FITC, EpCAMefluor710) ([1]; 0 hour incubation): 39%
- % Total, R10 EpCAM positive Cells (CD44FITC, EpCAMefluor710) ([1]; 0 hour incubation): 37.4%
- % Gated, R11 (CD44FITC, EpCAMefluor710) ([1]; 0 hour incubation): 2.16%
- % Total, R11 (CD44FITC, EpCAMefluor710) ([1]; 0 hour incubation): 2.07%
- % Gated, R4 (CD44FITC, CD133 PE) ([1]; 24 h incubation): 98.6%
- % Total, R4 (CD44FITC, CD133 PE) ([1]; 24 h incubation): 84.7%
- % Gated, R5 (CD44FITC, CD133 PE) ([1]; 24 h incubation): 0%
- % Total, R5 (CD44FITC, CD133 PE) ([1]; 24 h incubation): 0%
- % Gated, R6 (CD44FITC, CD133 PE) ([1]; 24 h incubation): 0.07%
- % Total, R6 (CD44FITC, CD133 PE) ([1]; 24 h incubation): 0.06%
- % Gated, R7 Cancer Stem Cell (CSC) (CD44+CD133-) ([1]; 24 h incubation): 1.01%
- % Total, R7 Cancer Stem Cell (CSC) (CD44+CD133-) ([1]; 24 h incubation): 0.87%
- % Gated, R8 (CD44FITC, EpCAMefluor710) ([1]; 24 h incubation): 99.8%
- % Total, R8 (CD44FITC, EpCAMefluor710) ([1]; 24 h incubation): 85.7%
- % Gated, R9 EpCAM positive Cells (CD44FITC, EpCAMefluor710) ([1]; 24 h incubation): 0.02%
- % Total, R9 EpCAM positive Cells (CD44FITC, EpCAMefluor710) ([1]; 24 h incubation): 0.02%
- % Gated, R10 EpCAM positive Cells (CD44FITC, EpCAMefluor710) ([1]; 24 h incubation): 0.02%
- % Total, R10 EpCAM positive Cells (CD44FITC, EpCAMefluor710) ([1]; 24 h incubation): 0.02%
- % Gated, R11 (CD44FITC, EpCAMefluor710) ([1]; 24 h incubation): 0.2%
- % Total, R11 (CD44FITC, EpCAMefluor710) ([1]; 24 h incubation): 0.17%
- % Gated, R4 (CD44FITC, CD133 PE) ([1]; 48 h incubation): 38%
- % Total, R4 (CD44FITC, CD133 PE) ([1]; 48 h incubation): 34.2%
- % Gated, R5 (CD44FITC, CD133 PE) ([1]; 48 h incubation): 7.48%
- % Total, R5 (CD44FITC, CD133 PE) ([1]; 48 h incubation): 6.73%
- % Gated, R6 (CD44FITC, CD133 PE) ([1]; 48 h incubation): 31.3%
- % Total, R6 (CD44FITC, CD133 PE) ([1]; 48 h incubation): 28.2%
- % Gated, R7 Cancer Stem Cell (CSC) (CD44+CD133-) ([1]; 48 h incubation): 23.9%
- % Total, R7 Cancer Stem Cell (CSC) (CD44+CD133-) ([1]; 48 h incubation): 21.5%
- % Gated, R8 (CD44FITC, EpCAMefluor710) ([1]; 48 h incubation): 20%
- % Total, R8 (CD44FITC, EpCAMefluor710) ([1]; 48 h incubation): 18%
- % Gated, R9 EpCAM positive Cells (CD44FITC, EpCAMefluor710) ([1]; 48 h incubation): 34.7%
- % Total, R9 EpCAM positive Cells (CD44FITC, EpCAMefluor710) ([1]; 48 h incubation): 31.2%
- % Gated, R10 EpCAM positive Cells (CD44FITC, EpCAMefluor710) ([1]; 48 h incubation): 31.8%
- % Total, R10 EpCAM positive Cells (CD44FITC, EpCAMefluor710) ([1]; 48 h incubation): 28.7%
- % Gated, R11 (CD44FITC, EpCAMefluor710) ([1]; 48 h incubation): 14.4%
- % Total, R11 (CD44FITC, EpCAMefluor710) ([1]; 48 h incubation): 12.9%
- putative stem cell population (CD44+/CD133-) ([1]; 10 ng per ml for 24 hours (Table 2, R7 region)): 1%
- putative stem cell population (CD44+/CD133-) ([1]; 10 ng per ml for 48 hours (Table 3, R7 region)): 23%
- putative stem cell population (CD44+/CD133-) ([1]; at baseline (Table 1, R7 region)): 33%
- percentage of cancer stem cells ([1]; at 24 hours): less than one percent
- percentage of cancer stem cells ([1]; at 48 hours): 21%
- percentage of cancer stem cells ([1]; prior to exposure): approximately 30%
- reduction in cell viability [2]: 87%
- sensitization of cancer cells to the combination treatment [3]: made the combination treatment less effective
- remaining cancer stem cells CD44+/CD133- ([4]; HGF alone 24 hours at 10 ng per ml followed by CPT-11, SW 620): 0%
- cancer stem cells killed [4, 5]: 100%
- viable cancer stem cells remaining [4, 5]: no viable cancer stem cells remaining

Source: patent publication US20190209650A1, “METHOD TO IMPROVE THE EFFECTIVENESS OF ANTI-CANCER THERAPIES BY EXPOSING CANCER CELLS TO AN INFLAMMATORY STIMULUS PRIOR TO TREATMENT” (priority 2016, published 2019)
